Data published in patent publication US6656907B1, “Method of treating gastric ulcer by administration of epidermal growth factor” (University Technologies International Inc., priority 1995, dated 2003).

System: intestinal brush border membrane nutrient absorption
Assay: Nutrient uptake into brush border membrane vesicles after jejunal loop treatment
Format: in vivo, New Zealand White rabbits
Procedure: Subsequent experiments examined the effects of EGF and an inhibitor of the EGF receptor (tyrphostin 51) on intestinal brush border membrane nutrient absorption. Tyrphostin 51is a specific inhibitor of tyrosine kinase, which is a critical element of the EGF intracellular signalling cascade. Studies were performed in New Zealand White rabbits (700-1000 g; approximately 8 weeks of age). Two 10 cm blind jejunal loops separated by a 1 cm segment were tied off starting 5 cm distal to the ligament of Treitz. In separate experiments either EGF (60 ng/ml), EGF+tyrphostin (10 μM), or tyrphostin (10 μM) alone in 1.5 ml of saline vehicle was administered to one of the loops. The other loop received vehicle alone and served as a paired control. After one hour, the loops were removed and the mucosa scraped for preparation of brush border membrane vesicles. Nutrient (D-glucose and L-proline) uptake into brush border membrane vesicles was determined by established techniques. Luminal EGF stimulated a significant increase (p<0.001) in brush border membrane glucose (EGF 16.1±1.0 vs CONTROL 11.5±0.9 nmol/min/mg protein; n=5) and proline (EGF 3.8±0.5 vs CONTROL 2.6±0.3 nmol/min/mg protein; n=5) transport compared to controls. […] Subsequently, a further series of experiments examined the effect of tyrphostin alone on brush border glucose transport. […]

SMILES: N#CC(C#N)=C(N)/C(C#N)=C/c1cc(O)c(O)c(O)c1 [TYR, tyrphostin 51, reference compound]
- effect on EGF-induced increase in glucose uptake (concurrent tyrphostin 10 μM with EGF 60 ng/ml): completely blocked
- brush border membrane glucose uptake (tyrphostin 10 μM alone, one hour, n=4, control 10.7±1.0): 8.0±0.8 nmol/min/mg protein
